Source: patent publication US20120029187A1, “HALOALKYLSULFONANILIDE DERIVATIVE” (Nissan Chemical Industries, Ltd., priority 2009, published 2012)

Key:
Type in all cases: in vivo
[1] = system: barnyardgrass; test: Test Example 1: herbicidal effects in preemergence treatment under submerged conditions; conditions: dose 2.52 g/a
Procedure, shortened: (§1)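 Submerged conditions, 4 cm water over alluvial soil. Weeds sown and 2.5-leaf rice transplanted; compound applied preemergence to water surface, doses in g per are. Greenhouse, 25 to 30° C., three weeks, then 0–5 mortality rating.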

[2] = system: bulrush; test: as above; conditions: dose 2.52 g/a
Procedure, shortened: as §1

[3] = system: ducksalad; test: as above; conditions: dose 2.52 g/a
Procedure, shortened: as §1

[4] = system: barnyardgrass; test: Test Example 2: herbicidal effects during the vegetation period under submerged conditions; conditions: treatment during the vegetation period under submerged conditions; dose 2.52 g/a
Procedure, shortened: (§2)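 Barnyardgrass, bulrush and ducksalad were co-sown in alluvial soil flooded to 4 cm and grown in a greenhouse at 25 to 30° C. At the 1- or 2-leaf stage, water-diluted emulsifiable concentrates went onto the water surface at set doses (g/a). Herbicidal effect was scored three weeks later on a graded scale.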

[5] = system: bulrush; test: as above; conditions: treatment during the vegetation period under submerged conditions; dose 2.52 g/a
Procedure, shortened: as §2

[6] = system: ducksalad; test: as above; conditions: treatment during the vegetation period under submerged conditions; dose 2.52 g/a
Procedure, shortened: as §2

[7] = system: Italian ryegrass; test: Test Example 3: herbicidal effects in soil treatment; conditions: dose 6.3 g/a
Procedure, shortened: (§3)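 Seeds were sown in sterilized diluvial soil and covered with about 1.5 cm of soil. Compounds, formulated as emulsifiable concentrates and diluted with water, were sprayed evenly over the soil surface at set doses in g/a. Herbicidal effect was scored on a rating scale three weeks later.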

[8] = system: barnyardgrass; test: as above; conditions: dose 6.3 g/a
Procedure, shortened: as §3

[9] = system: common chickweed; test: as above; conditions: dose 6.3 g/a
Procedure, shortened: as §3

[10] = system: common lambsquater; test: as above; conditions: dose 6.3 g/a
Procedure, shortened: as §3

[11] = system: common ragweed; test: as above; conditions: dose 6.3 g/a
Procedure, shortened: as §3

[12] = system: giant foxtail; test: as above; conditions: dose 6.3 g/a
Procedure, shortened: as §3

[13] = system: large crabgrass; test: as above; conditions: dose 6.3 g/a
Procedure, shortened: as §3

[14] = system: redroot pigweed; test: as above; conditions: dose 6.3 g/a
Procedure, shortened: as §3

[15] = system: water foxtail; test: as above; conditions: dose 6.3 g/a
Procedure, shortened: as §3

[16] = system: wild oat; test: as above; conditions: dose 6.3 g/a
Procedure, shortened: as §3

[17] = system: Italian ryegrass; test: Test Example 4: herbicidal effect in foliage treatment; conditions: dose 6.3 g/a
Procedure, shortened: (§4)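 Doses are given in grams per are of applied compound, sprayed as water-diluted emulsifiable concentrate onto foliage of 14-day-old plants grown at 25 to 30° C. Herbicidal activity was assessed visually on a rating scale after three weeks.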

[18] = system: barnyardgrass; test: as above; conditions: dose 6.3 g/a
Procedure, shortened: as §4

[19] = system: beadstraw; test: as above; conditions: dose 6.3 g/a
Procedure, shortened: as §4

[20] = system: common chickweed; test: as above; conditions: dose 6.3 g/a
Procedure, shortened: as §4

[21] = system: common lambsquater; test: as above; conditions: dose 6.3 g/a
Procedure, shortened: as §4

[22] = system: common ragweed; test: as above; conditions: dose 6.3 g/a
Procedure, shortened: as §4

[23] = system: giant foxtail; test: as above; conditions: dose 6.3 g/a
Procedure, shortened: as §4

[24] = system: large crabgrass; test: as above; conditions: dose 6.3 g/a
Procedure, shortened: as §4

[25] = system: redroot pigweed; test: as above; conditions: dose 6.3 g/a
Procedure, shortened: as §4

[26] = system: water foxtail; test: as above; conditions: dose 6.3 g/a
Procedure, shortened: as §4

[27] = system: wild oat; test: as above; conditions: dose 6.3 g/a
Procedure, shortened: as §4

[28] = three weeks after the application

O=C1CCOCCN1Cc1ccccc1NS(=O)(=O)C(F)(F)F [Compound V-1]
A: barnyardgrass, herbicidal effect (evaluation scale 0-5) [1]: 5 (mortality of 90% or above (nearly complete death)) | B: bulrush, herbicidal effect (evaluation scale 0-5) [2]: 5 (mortality of 90% or above (nearly complete death)) | C: ducksalad, herbicidal effect (evaluation scale 0-5) [3]: 5 (mortality of 90% or above (nearly complete death)) | A: barnyardgrass, herbicidal effect (evaluation scale 0-5) [4]: 5 (mortality of 90% or above (nearly complete death)) | B: bulrush, herbicidal effect (evaluation scale 0-5) [5]: 5 (mortality of 90% or above (nearly complete death)) | C: ducksalad, herbicidal effect (evaluation scale 0-5) [6]: 5 (mortality of 90% or above (nearly complete death)) | herbicidal effect, H: Italian ryegrass [7]: 3 (mortality of at least 40% and less than 70%) | herbicidal effect, A: barnyardgrass [8]: 5 (mortality of 90% or above (nearly complete death)) | herbicidal effect, N: common chickweed [9]: 5 (mortality of 90% or above (nearly complete death)) | herbicidal effect, L: common lambsquater [10]: 5 (mortality of 90% or above (nearly complete death)) | herbicidal effect, J: common ragweed [11]: 5 (mortality of 90% or above (nearly complete death)) | herbicidal effect, E: giant foxtail [12]: 4 (mortality of at least 70% and less than 90%) | herbicidal effect, D: large crabgrass [13]: 0 (mortality of less than 5% (almost ineffective)) | herbicidal effect, K: redroot pigweed [14]: 4 (mortality of at least 70% and less than 90%) | herbicidal effect, G: water foxtail [15]: 5 (mortality of 90% or above (nearly complete death)) | herbicidal effect, F: wild oat [16]: 3 (mortality of at least 40% and less than 70%) | H: Italian ryegrass, herbicidal effect [17, 28]: 3 (mortality of at least 40% and less than 70%) | A: barnyardgrass, herbicidal effect [18, 28]: 5 (mortality of 90% or above (nearly complete death)) | O: beadstraw, herbicidal effect [19, 28]: 4 (mortality of at least 70% and less than 90%) | N: common chickweed, herbicidal effect [20, 28]: 4 (mortality of at least 70% and less than 90%) | L: common lambsquater, herbicidal effect [21, 28]: 4 (mortality of at least 70% and less than 90%) | J: common ragweed, herbicidal effect [22, 28]: 5 (mortality of 90% or above (nearly complete death)) | E: giant foxtail, herbicidal effect [23, 28]: 5 (mortality of 90% or above (nearly complete death)) | D: large crabgrass, herbicidal effect [24, 28]: 4 (mortality of at least 70% and less than 90%) | K: redroot pigweed, herbicidal effect [25, 28]: 1 (mortality of at least 5% and less than 20%) | G: water foxtail, herbicidal effect [26, 28]: 5 (mortality of 90% or above (nearly complete death)) | F: wild oat, herbicidal effect [27, 28]: 0 (mortality of less than 5% (almost ineffective))

CCC(=O)N(c1ccccc1CN1COC(C)CC1=O)S(=O)(=O)C(F)(F)F (stereo not drawn) [II-5]
A: barnyardgrass, herbicidal effect (evaluation scale 0-5) [1]: 5 (mortality of 90% or above (nearly complete death)) | B: bulrush, herbicidal effect (evaluation scale 0-5) [2]: 5 (mortality of 90% or above (nearly complete death)) | C: ducksalad, herbicidal effect (evaluation scale 0-5) [3]: 5 (mortality of 90% or above (nearly complete death)) | A: barnyardgrass, herbicidal effect (evaluation scale 0-5) [4]: 5 (mortality of 90% or above (nearly complete death)) | B: bulrush, herbicidal effect (evaluation scale 0-5) [5]: 5 (mortality of 90% or above (nearly complete death)) | C: ducksalad, herbicidal effect (evaluation scale 0-5) [6]: 5 (mortality of 90% or above (nearly complete death)) | H: Italian ryegrass, herbicidal effect (evaluation scale 0-5) [7]: 4 (mortality of at least 70% and less than 90%) | A: barnyardgrass, herbicidal effect (evaluation scale 0-5) [8]: 5 (mortality of 90% or above (nearly complete death)) | N: common chickweed, herbicidal effect (evaluation scale 0-5) [9]: 5 (mortality of 90% or above (nearly complete death)) | L: common lambsquater, herbicidal effect (evaluation scale 0-5) [10]: 4 (mortality of at least 70% and less than 90%) | J: common ragweed, herbicidal effect (evaluation scale 0-5) [11]: 4 (mortality of at least 70% and less than 90%) | E: giant foxtail, herbicidal effect (evaluation scale 0-5) [12]: 3 (mortality of at least 40% and less than 70%) | D: large crabgrass, herbicidal effect (evaluation scale 0-5) [13]: 5 (mortality of 90% or above (nearly complete death)) | K: redroot pigweed, herbicidal effect (evaluation scale 0-5) [14]: 1 (mortality of at least 5% and less than 20%) | G: water foxtail, herbicidal effect (evaluation scale 0-5) [15]: 5 (mortality of 90% or above (nearly complete death)) | F: wild oat, herbicidal effect (evaluation scale 0-5) [16]: 0 (mortality of less than 5% (almost ineffective)) | H: Italian ryegrass, herbicidal effect ([17]; three weeks after application): 3 (mortality of at least 40% and less than 70%) | A: barnyardgrass, herbicidal effect ([18]; three weeks after application): 5 (mortality of 90% or above (nearly complete death)) | O: beadstraw, herbicidal effect ([19]; three weeks after application): 0 (mortality of less than 5% (almost ineffective)) | N: common chickweed, herbicidal effect ([20]; three weeks after application): 3 (mortality of at least 40% and less than 70%) | L: common lambsquater, herbicidal effect ([21]; three weeks after application): 3 (mortality of at least 40% and less than 70%) | J: common ragweed, herbicidal effect ([22]; three weeks after application): 5 (mortality of 90% or above (nearly complete death)) | E: giant foxtail, herbicidal effect ([23]; three weeks after application): 5 (mortality of 90% or above (nearly complete death)) | D: large crabgrass, herbicidal effect ([24]; three weeks after application): 5 (mortality of 90% or above (nearly complete death)) | K: redroot pigweed, herbicidal effect ([25]; three weeks after application): 0 (mortality of less than 5% (almost ineffective)) | G: water foxtail, herbicidal effect ([26]; three weeks after application): 5 (mortality of 90% or above (nearly complete death)) | F: wild oat, herbicidal effect ([27]; three weeks after application): 0 (mortality of less than 5% (almost ineffective))
